Results taken from US20230338370A1, “Treatment of Cancer with TOR Kinase Inhibitors” (Signal Pharmaceuticals, LLC, priority 2012, published 2023).

Experiments:
MDA-MB-231 tumors = assay: MDA-MB-231 Triple Negative (TN) Breast Cancer Model (xenograft); assay type: in vivo; conditions: nude mice, subcutaneous MDA-MB-231 xenograft; oral QD for up to 26 days, 1 to 5 mg/kg
Procedure: A xenograft study was conducted with MDA-MB-231 tumor-bearing mice. Nude mice were inoculated subcutaneously with MDA-MB-231 cells in the flank region above the right hind leg. Following inoculation of animals, the tumors were allowed to grow to about 150 mm^3 prior to randomization. On Day 38 following tumor cell inoculation, the mice bearing MDA-MB-231 tumors ranging between 65 and 304 mm^3 were pooled together and randomized into various treatment groups. […] The positive control Taxotere (15 mg/kg, Q4D) was administered via the intravenous (IV) route. Taxotere was diluted in saline. Tumors were measured twice a week using calipers and tumor volumes were calculated using the formula of W2 × L / 2 (wherein “W” is tumor width and “L” is tumor length).

CAL-148 = assay: Growth inhibition assay for Breast Cancer (BC) Cell lines; assay type: cell-based; conditions: Homo sapiens; CAL-148, TN; 96 hours, Cell Titer-Glo
Procedure: (§1) Growth inhibition assay for Breast Cancer (BC) Cell lines. Compounds 1 (a TOR kinase inhibitor set forth herein having molecular formula C16H16N8O) and 2 (a TOR kinase inhibitor set forth herein having molecular formula C17H18N8O2) were dissolved in dimethyl sulfoxide (DMSO) to prepare a 10 mM stock solution. A serial titration was performed to produce a working concentration range of 1.5 µM to 10 mM. Aliquots to produce final concentrations of 1.5 nM to 10 µM were spotted via an acoustic dispenser (EDC ATS-100) into an empty 384-well plate. Compounds 1 and 2 were spotted in a 10-point serial dilution fashion (3-fold dilution) in duplicate within the plate. The DMSO concentration was kept constant for a final assay concentration of 0.1% DMSO. Plates were replicated for use with different cell lines and testing periods. After compound plate replication, all plates were sealed (Agilent ThermoLoc) and stored at -20° C. for up to 1 month. […] When ready for testing, plates were removed from the freezer, thawed, and unsealed just prior to the addition of the test cells. Prior to testing, cells were grown and expanded in culture flasks to provide sufficient amounts of starting material. Cells were then diluted to the appropriate densities and added directly to the compound-spotted 384-well plates. Cells were allowed to grow for 96 hours at 37° C./5% CO2. At the time when compound was added (t0), initial cell number was assessed via a viability assay (Cell Titer-Glo) by quantifying the level of luminescence generated by ATP present in viable cells. After 96 hours, cell viability of compound-treated cells was assessed via Cell Titer-Glo and luminescence measurement. Cell lines were assayed for growth inhibition by Compounds 1 and 2 in at least 3 independent tests. A control cell line (the lung tumor cell line, A549) was included in each of the assays. The compound response against this control cell line was monitored closely to enable comparison of the data generated through the assay period. All data were normalized and presented as a percentage of the DMSO-treated cells. Results were then expressed as a GI50 value. The GI50 value corrects for the cell count at time zero.

BT-20 = assay: as above; assay type: cell-based; conditions: Homo sapiens; BT-20, TN; 96 hours, Cell Titer-Glo
Procedure: as §1

HCC1937 = assay: as above; assay type: cell-based; conditions: Homo sapiens; HCC1937, TN; 96 hours, Cell Titer-Glo
Procedure: as §1

HDQ-P1 = assay: as above; assay type: cell-based; conditions: Homo sapiens; HDQ-P1, TN; 96 hours, Cell Titer-Glo
Procedure: as §1

HCC38 = assay: as above; assay type: cell-based; conditions: Homo sapiens; HCC38, TN; 96 hours, Cell Titer-Glo
Procedure: as §1

MDA-MB-468 = assay: as above; assay type: cell-based; conditions: Homo sapiens; MDA-MB-468, TN; 96 hours, Cell Titer-Glo
Procedure: as §1

MT-3 = assay: as above; assay type: cell-based; conditions: MT-3, TN; 96 hours, Cell Titer-Glo
Procedure: as §1

CAL-51 = assay: as above; assay type: cell-based; conditions: Homo sapiens; CAL-51, TN; 96 hours, Cell Titer-Glo
Procedure: as §1

HCC70 = assay: as above; assay type: cell-based; conditions: Homo sapiens; HCC70, TN; 96 hours, Cell Titer-Glo
Procedure: as §1

DU4475 = assay: as above; assay type: cell-based; conditions: Homo sapiens, DU-4475; DU4475, TN; 96 hours, Cell Titer-Glo
Procedure: as §1

MDA-MB-157 = assay: as above; assay type: cell-based; conditions: Homo sapiens; MDA-MB-157, TN; 96 hours, Cell Titer-Glo
Procedure: as §1

CAL-85-1 = assay: as above; assay type: cell-based; conditions: Homo sapiens; CAL-85-1, TN; 96 hours, Cell Titer-Glo
Procedure: as §1

MB157 = assay: as above; assay type: cell-based; conditions: MB157, TN; 96 hours, Cell Titer-Glo
Procedure: as §1

MDA-MB-436 = assay: as above; assay type: cell-based; conditions: Homo sapiens; MDA-MB-436, TN; 96 hours, Cell Titer-Glo
Procedure: as §1

HCC1806 = assay: as above; assay type: cell-based; conditions: Homo sapiens; HCC1806, TN; 96 hours, Cell Titer-Glo
Procedure: as §1

CAL-120 = assay: as above; assay type: cell-based; conditions: Homo sapiens; CAL-120, TN; 96 hours, Cell Titer-Glo
Procedure: as §1

BT-549 = assay: as above; assay type: cell-based; conditions: Homo sapiens; BT-549, TN; 96 hours, Cell Titer-Glo
Procedure: as §1

HCC1143 = assay: as above; assay type: cell-based; conditions: Homo sapiens; HCC1143, TN; 96 hours, Cell Titer-Glo
Procedure: as §1

SMILES: CCN1C(=O)CNc2ncc(-c3ccc(-c4nc[nH]n4)nc3C)nc21 [Compound 1, 1-ethyl-7-(2-methyl-6-(1H-1,2,4-triazol-3-yl)pyridin-3-yl)-3,4-dihydropyrazino[2,3-b]pyrazin-2(1H)-one]
- tumor growth (MDA-MB-231 tumors): inhibited MDA-MB-231 breast cancer tumor growth
- GI50 (CAL-148): 187 nM
- GI50 (BT-20): 116 nM
- GI50 (HCC1937): 161 nM
- GI50 (HDQ-P1): 162 nM
- GI50 (HCC38): 430 nM
- GI50 (MDA-MB-468): 87.2 nM
- GI50 (MT-3): 150 nM
- GI50 (CAL-51): 71 nM
- GI50 (HCC70): 94.2 nM
- GI50 (DU4475): 237 nM
- GI50 (MDA-MB-157): 472 nM
- GI50 (CAL-85-1): 88.8 nM
- GI50 (MB157): 346 nM
- GI50 (MDA-MB-436): 279 nM
- GI50 (HCC1806): 187 nM
- GI50 (CAL-120): 182 nM
- GI50 (BT-549): 146 nM
- GI50 (HCC1143): 400 nM
